Results as given in ChEMBL document CHEMBL1201862, “PubChem BioAssay data set” (2004).
Where “and” joins values, the source holds several entries; their conditions need not be identical. Equal values may be shown once.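 Cultured in 96-well plates, cells were exposed to test compound for 48 hours across five concentrations. At the GI50, growth is halved.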 Calls of active or inactive are those of the source. No stated cut-off is given here; in the data, active = GI50 up to about 1.1 µM and inactive = higher.

What was measured:
Assay in all cases: growth of human tumour cells (NCI), 48 h
786-0 = test system: 786-0
BT-549 = test system: BT-549
CCRF-CEM = test system: CCRF-CEM
HCT-116 = test system: HCT-116
HL-60 = test system: HL-60
HT-29 = test system: HT-29
Hs-578T = test system: Hs-578T
IGROV-1 = test system: IGROV-1
K562 = test system: K562
KM12 = test system: KM12
LOX IMVI = test system: LOX IMVI
MDA-MB-435 = test system: MDA-MB-435
MDA-N = test system: MDA-N
MOLT-4 = test system: MOLT-4
NCI-H460 = test system: NCI-H460
NCI-H522 = test system: NCI-H522
OVCAR-8 = test system: OVCAR-8
RPMI-8226 = test system: RPMI-8226
RXF 393 = test system: RXF 393
SF-268 = test system: SF-268
SF-295 = test system: SF-295
SK-MEL-5 = test system: SK-MEL-5
SN12C = test system: SN12C
SNB-75 = test system: SNB-75
SW-620 = test system: SW-620
A498 = test system: A498
A549 = test system: A549
ACHN = test system: ACHN
CAKI-1 = test system: CAKI-1
COLO 205 = test system: COLO 205
DU-145 = test system: DU-145
EKVX = test system: EKVX
HCC 2998 = test system: HCC 2998
HCT-15 = test system: HCT-15
HOP-62 = test system: HOP-62
HOP-92 = test system: HOP-92
M14 = test system: M14
MCF7 = test system: MCF7
MDA-MB-231 = test system: MDA-MB-231
Malme-3M = test system: Malme-3M
NCI-H226 = test system: NCI-H226
NCI-H23 = test system: NCI-H23
NCI/ADR-RES = test system: NCI/ADR-RES
OVCAR-3 = test system: OVCAR-3
OVCAR-4 = test system: OVCAR-4
OVCAR-5 = test system: OVCAR-5
PC-3 = test system: PC-3
SK-MEL-28 = test system: SK-MEL-28
SK-MEL-2 = test system: SK-MEL-2
SK-OV-3 = test system: SK-OV-3
SNB-19 = test system: SNB-19
TK-10 = test system: TK-10
U-251 = test system: U-251
UACC-257 = test system: UACC-257
UACC-62 = test system: UACC-62
UO-31 = test system: UO-31

CC(=O)OCC1OC(OC(C)(C)CC/C=C(\C)[C@@H]2C/C=C(\C)CC/C=C(\C)CC2)C(O)C(O)C1OC(C)=O (stereo not given in full)
GI50 (786-0): 39.4 µM (inactive) and 23.6 µM (inactive) | GI50 (BT-549): 33.9 µM (inactive) and 19.7 µM (inactive) | GI50 (CCRF-CEM): 22.5 µM (inactive) and 14 µM (inactive) | GI50 (HCT-116): 25 µM (inactive) and 22.9 µM (inactive) | GI50 (HL-60): 28.5 µM (inactive) | GI50 (HT-29): 24.5 µM (inactive) and 14.9 µM (inactive) | GI50 (Hs-578T): 0.3 µM (active) | GI50 (IGROV-1): 17.5 µM (inactive) and 21.6 µM (inactive) | GI50 (K562): 28.7 µM (inactive) and 22.4 µM (inactive) | GI50 (KM12): 26.7 µM (inactive) and 19 µM (inactive) | GI50 (LOX IMVI): 18.5 µM (inactive) and 21.3 µM (inactive) | GI50 (MDA-MB-435): 32.8 µM (inactive) and 20.2 µM (inactive) | GI50 (MDA-N): 24.7 µM (inactive) and 19.7 µM (inactive) | GI50 (MOLT-4): 17 µM (inactive) and > 10 µM (inactive) | GI50 (NCI-H460): 17.9 µM (inactive) and 23.2 µM (inactive) | GI50 (NCI-H522): 18.9 µM (inactive) and 11.3 µM (inactive) | GI50 (OVCAR-8): 20.6 µM (inactive) and 28.6 µM (inactive) | GI50 (RPMI-8226): 25.5 µM (inactive) and 19.7 µM (inactive) | GI50 (RXF 393): > 100 µM (inactive) | GI50 (SF-268): 27 µM (inactive) and 19.8 µM (inactive) | GI50 (SF-295): 22.9 µM (inactive) and 42.3 µM (inactive) | GI50 (SK-MEL-5): 17.5 µM (inactive) and 30.1 µM (inactive) | GI50 (SN12C): 32 µM (inactive) and 20 µM (inactive) | GI50 (SNB-75): 17.4 µM (inactive) and 17.1 µM (inactive) | GI50 (SW-620): 26.1 µM (inactive) and 24.2 µM (inactive)

CC12CC(c3ccccc3O1)C(C(=O)Nc1nccs1)C(=O)N2 (stereo not given)
GI50 (786-0): > 100 µM (inactive) | GI50 (A498): > 100 µM (inactive) | GI50 (A549): > 100 µM (inactive) | GI50 (ACHN): > 100 µM (inactive) | GI50 (BT-549): > 100 µM (inactive) | GI50 (CAKI-1): > 100 µM (inactive) | GI50 (CCRF-CEM): > 100 µM (inactive) | GI50 (COLO 205): > 100 µM (inactive) | GI50 (DU-145): > 100 µM (inactive) | GI50 (EKVX): 35.7 µM (inactive) | GI50 (HCC 2998): > 100 µM (inactive) | GI50 (HCT-116): > 100 µM (inactive) | GI50 (HCT-15): > 100 µM | GI50 (HL-60): > 100 µM (inactive) | GI50 (HOP-62): > 100 µM (inactive) | GI50 (HOP-92): 84.3 µM (inactive) | GI50 (HT-29): > 100 µM (inactive) | GI50 (Hs-578T): > 100 µM (inactive) | GI50 (IGROV-1): > 100 µM (inactive) | GI50 (K562): > 100 µM (inactive) | GI50 (KM12): > 100 µM (inactive) | GI50 (LOX IMVI): > 100 µM (inactive) | GI50 (M14): > 100 µM (inactive) | GI50 (MCF7): > 100 µM (inactive) | GI50 (MDA-MB-231): > 100 µM (inactive) | GI50 (MDA-MB-435): > 100 µM (inactive) | GI50 (MDA-N): > 100 µM (inactive) | GI50 (MOLT-4): > 100 µM (inactive) | GI50 (Malme-3M): > 100 µM (inactive) | GI50 (NCI-H226): > 100 µM (inactive) | GI50 (NCI-H23): > 100 µM (inactive) | GI50 (NCI-H460): > 100 µM (inactive) | GI50 (NCI-H522): > 100 µM (inactive) | GI50 (NCI/ADR-RES): > 100 µM (inactive) | GI50 (OVCAR-3): > 100 µM (inactive) | GI50 (OVCAR-4): > 100 µM (inactive) | GI50 (OVCAR-5): > 100 µM (inactive) | GI50 (OVCAR-8): > 100 µM (inactive) | GI50 (PC-3): > 100 µM (inactive) | GI50 (RPMI-8226): 98.4 µM (inactive) | GI50 (RXF 393): > 100 µM (inactive) | GI50 (SF-268): > 100 µM (inactive) | GI50 (SF-295): > 100 µM (inactive) | GI50 (SK-MEL-28): 40.5 µM (inactive) | GI50 (SK-MEL-2): > 100 µM (inactive) | GI50 (SK-MEL-5): > 100 µM (inactive) | GI50 (SK-OV-3): > 100 µM (inactive) | GI50 (SNB-19): > 100 µM (inactive) | GI50 (SNB-75): > 100 µM (inactive) | GI50 (SW-620): > 100 µM (inactive) | GI50 (TK-10): > 100 µM (inactive) | GI50 (U-251): > 100 µM (inactive) | GI50 (UACC-257): > 100 µM (inactive) | GI50 (UACC-62): > 100 µM (inactive) | GI50 (UO-31): > 100 µM (inactive)
